The values that follow come from US8106215B2, “3-aza-bicyclo[3.3.0]octane compounds” (Actelion Pharmaceuticals Ltd., priority 2007, dated 2012).

The target of one experiment is T1, human orexin-2 receptor (Homo sapiens, UniProt O43614).
T1 construct: expressed in transfected cells; host or cells: CHO cells (G418 selection)
T1 sequence (O43614 1-444): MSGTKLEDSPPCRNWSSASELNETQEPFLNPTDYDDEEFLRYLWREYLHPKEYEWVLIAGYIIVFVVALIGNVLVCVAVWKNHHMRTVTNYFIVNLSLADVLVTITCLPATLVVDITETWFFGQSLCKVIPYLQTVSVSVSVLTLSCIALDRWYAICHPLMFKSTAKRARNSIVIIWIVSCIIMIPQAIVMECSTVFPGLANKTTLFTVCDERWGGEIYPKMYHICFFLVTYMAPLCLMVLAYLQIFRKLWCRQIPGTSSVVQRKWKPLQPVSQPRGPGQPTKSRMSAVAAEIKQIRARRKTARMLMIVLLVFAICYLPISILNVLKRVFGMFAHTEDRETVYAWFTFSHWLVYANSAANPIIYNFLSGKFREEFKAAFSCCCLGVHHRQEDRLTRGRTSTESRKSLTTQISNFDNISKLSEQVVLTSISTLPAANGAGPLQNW
As to the kind of experiment: Intracellular calcium measurements (FLIPR), orexin receptor antagonistic activity, OX2. To be noted: CHO cells expressing human orexin-2 receptor, 3 nM orexin-A. Format: cell-based. How it is done:
(§1) The orexin receptor antagonistic activity of the compounds of formula (I) is determined in accordance with the following experimental method.
(§2) Intracellular Calcium Measurements:
(§3) Chinese hamster ovary (CHO) cells expressing the human orexin-1 receptor and the human orexin-2 receptor, respectively, are grown in culture medium (Ham F-12 with L-Glutamine) containing 300 μg/ml G418, 100 U/ml penicillin, 100 μg/ml streptomycin and 10% heat inactivated fetal calf serum (FCS). The cells are seeded at 20,000 cells/well into 384-well black clear bottom sterile plates (Greiner). The seeded plates are incubated overnight at 37° C. in 5% CO2.
(§4) Human orexin-A as an agonist is prepared as 1 mM stock solution in MeOH:water (1:1), diluted in HBSS containing 0.1% bovine serum albumin (BSA), NaHCO3: 0.375 g/l and 20 mM HEPES for use in the assay at a final concentration of 3 nM.
(§5) Antagonists are prepared as 10 mM stock solution in DMSO, then diluted in 384-well plates using DMSO followed by a transfer of the dilutions into in HBSS containing 0.1% bovine serum albumin (BSA), NaHCO3: 0.375 g/l and 20 mM HEPES. On the day of the assay, 50 μl of staining buffer (HBSS containing 1% FCS, 20 mM HEPES, NaHCO3: 0.375 g/l, 5 mM probenecid (Sigma) and 3 μM of the fluorescent calcium indicator fluo-4 AM (1 mM stock solution in DMSO, containing 10% pluronic) is added to each well. The 384-well cell-plates are incubated for 50 min at 37° C. in 5% CO2 followed by equilibration at rt for 30-120 min before measurement.
(§6) Within the Fluorescent Imaging Plate Reader (FLIPR2 or FLIPR Tetra, Molecular Devices), antagonists are added to the plate in a volume of […], incubated for 10 min and finally 10 μl/well of agonist is added. Fluorescence is measured for each well at 1 second intervals, and the height of each fluorescence peak is compared to the height of the fluorescence peak induced by 3 nM orexin-A with vehicle in place of antagonist. For each antagonist, the IC50 value (the concentration of compound needed to inhibit 50% of the agonistic response) is determined. With the FLIPR Tetra, non-optimized and optimized conditions were used. Optimized conditions were achieved by adjustment of pipetting speed and cell splitting regime. The calculated IC50 values of the compounds may fluctuate depending on the daily cellular assay performance. Fluctuations of this kind are known to those skilled in the art.
For orientation: Calcium flux is commonly read through the fluorescence of an indicator in the cells.

A further experiment deals with T2, human orexin-1 receptor (Homo sapiens, UniProt O43613).
T2 construct: expressed in transfected cells; host or cells: CHO cells (G418 selection)
T2 sequence (O43613 1-425): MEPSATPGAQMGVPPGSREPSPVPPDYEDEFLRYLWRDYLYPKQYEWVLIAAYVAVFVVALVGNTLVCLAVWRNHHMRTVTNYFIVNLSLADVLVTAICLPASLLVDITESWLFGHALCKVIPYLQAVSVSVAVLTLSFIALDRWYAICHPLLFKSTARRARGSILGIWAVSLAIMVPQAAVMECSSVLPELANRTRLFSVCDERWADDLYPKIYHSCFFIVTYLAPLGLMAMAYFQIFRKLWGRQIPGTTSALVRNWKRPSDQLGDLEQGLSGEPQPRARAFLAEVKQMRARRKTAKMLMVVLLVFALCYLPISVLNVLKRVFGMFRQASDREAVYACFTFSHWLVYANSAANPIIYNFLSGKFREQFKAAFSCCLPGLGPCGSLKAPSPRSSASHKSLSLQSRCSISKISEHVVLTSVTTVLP
As to the kind of experiment: Intracellular calcium measurements (FLIPR), orexin receptor antagonistic activity, OX1. To be noted: CHO cells expressing human orexin-1 receptor, 3 nM orexin-A. Type of experiment: cell-based. As for the experimental part:
as §1, §2, §3, §4, §5, §6

Setting [1] is: FLIPR Tetra, non-optimized conditions.
The mark [2] stands for this setting: FLIPR Tetra, optimized conditions.

In the case of `Cc1cccc(-c2sc(C)nc2C(=O)N2C[C@@H]3CC(C)C[C@@H]3[C@H]2CNC(=O)c2c(C)noc2C)c1` (stereo partly drawn) [Example 6, 3,5-Dimethyl-isoxazole-4-carboxylic acid-(1S,2S,5R)-[7-methyl-3-(2-methyl-5-m-tolyl-thiazole-4-carbonyl)-3-aza-bicyclo[3.3.0]-2-ylmethyl]-amide], the IC50 at human orexin-2 receptor (FLIPR2) was 0.114 µM; on human orexin-1 receptor (FLIPR2), 0.059 µM.

On to `Cc1cccc(-c2sc(C)nc2C(=O)N2C[C@@H]3CC(C)C[C@@H]3[C@H]2CNC(=O)c2noc3ccccc23)c1` (stereo partly drawn) [Example 7, Benzo[d]isoxazole-3-carboxylic acid-(1S,2S,5R)-[7-methyl-3-(2-methyl-5-m-tolyl-thiazole-4-carbonyl)-3-aza-bicyclo[3.3.0]oct-2-ylmethyl]-amide], for which the figures for the IC50 on human orexin-2 receptor (FLIPR2) and on human orexin-1 receptor (FLIPR2) were 0.013 µM and 0.012 µM, respectively.

In the case of `Cc1cccc(-c2sc(C)nc2C(=O)N2C[C@@H]3CC(C)C[C@@H]3[C@H]2CNC(=O)c2cnc3sccn23)c1` (stereo partly drawn) [Example 11, Imidazo[2,1-b]thiazole-5-carboxylic acid-(1S,2S,5R)-[7-methyl-3-(2-methyl-5-m-tolyl-thiazole-4-carbonyl)-3-aza-bicyclo[3.3.0]oct-2-ylmethyl]-amide], the IC50 on human orexin-2 receptor (FLIPR2) came out at 0.009 µM; on human orexin-1 receptor (FLIPR2), 0.007 µM.

As to `Cc1cccc(C(=O)NC[C@@H]2[C@H]3CC(C)C[C@H]3CN2C(=O)c2nc(C)sc2-c2cccc(C)c2)c1` (stereo partly drawn) [Example 19, (1S,2S,5R)-3-Methyl-N-[7-methyl-3-(2-methyl-5-m-tolyl-thiazole-4-carbonyl)-3-aza-bicyclo[3.3.0]oct-2-ylmethyl]-benzamide], the figures for the IC50 at human orexin-2 receptor (FLIPR2) and on human orexin-1 receptor (FLIPR2) were 0.047 µM and 0.077 µM, respectively.

Regarding `Cc1cccc(-c2sc(C)nc2C(=O)N2C[C@@H]3CC(C)C[C@@H]3[C@H]2CNC(=O)c2cc(Cl)ccn2)c1` (stereo partly drawn) [Example 25, 4-Chloro-pyridine-2-carboxylic acid-(1S,2S,5R)-[7-methyl-3-(2-methyl-5-m-tolyl-thiazole-4-carbonyl)-3-aza-bicyclo[3.3.0]oct-2-ylmethyl]-amide], the values for the IC50 at human orexin-2 receptor (FLIPR2) and on human orexin-1 receptor (FLIPR2) were 0.048 µM and 0.024 µM, respectively.

Regarding `COc1cccc(-c2sc(C)nc2C(=O)N2C[C@@H]3CCC[C@@H]3[C@H]2CNC(=O)c2c(C)nc3sccn23)c1` [Example 33, 6-Methyl-imidazo[2,1-b]thiazole-5-carboxylic acid-(1S,2S,5R)-{3-[5-(3-methoxy-phenyl)-2-methyl-thiazole-4-carbonyl]-3-aza-bicyclo[3.3.0]oct-2-ylmethyl}-amide], the IC50 on human orexin-2 receptor (setting [1]) stood at 0.017 µM; on human orexin-1 receptor (setting [1]), 0.008 µM.

For `Cc1nc(C(=O)N2C[C@@H]3CC(C)C[C@@H]3[C@H]2CNC(=O)c2c(C)nc3sccn23)c(-c2cccc(C(F)(F)F)c2)s1` (stereo partly drawn) [Example 36, 6-Methyl-imidazo[2,1-b]thiazole-5-carboxylic acid-(1S,2S,5R)-{7-methyl-3-[2-methyl-5-(3-trifluoromethyl-phenyl)-thiazole-4-carbonyl]-3-aza-bicyclo[3.3.0]oct-2-ylmethyl}-amide], the results for the concentration for half-maximal inhibition (IC50) at human orexin-2 receptor (setting [1]) and on human orexin-1 receptor (setting [1]) were 0.262 µM and 0.044 µM, respectively.

Consider `Cc1nc(C(=O)N2C[C@@H]3CC(C)C[C@@H]3[C@H]2CNC(=O)c2c(C)nc3sccn23)c(-c2ccc(F)c(F)c2)s1` (stereo partly drawn) [Example 51, 6-Methyl-imidazo[2,1-b]thiazole-5-carboxylic acid-(1S,2S,5R)-{3-[5-(3,4-difluoro-phenyl)-2-methyl-thiazole-4-carbonyl]-7-methyl-3-aza-bicyclo[3.3.0]oct-2-ylmethyl}-amide], for which the results for the IC50 on human orexin-2 receptor (setting [1]) and at human orexin-1 receptor (setting [1]) were 0.094 µM and 0.033 µM, respectively.

As for `Cc1nc2sccn2c1C(=O)NC[C@@H]1[C@H]2CCC[C@H]2CN1C(=O)c1ccccc1-c1ccccc1` [Example 60, 6-Methyl-imidazo[2,1-b]thiazole-5-carboxylic acid-(1S,2S,5R)-[3-(biphenyl-2-carbonyl)-3-aza-bicyclo[3.3.0]oct-2-ylmethyl]-amide], the IC50 at human orexin-2 receptor (setting [1]) stood at 0.021 µM; at human orexin-1 receptor (setting [1]), 0.016 µM.

With `Cc1nc2sccn2c1C(=O)NC[C@@H]1[C@H]2CCC[C@H]2CN1C(=O)c1nc(N)sc1-c1cccc(F)c1` [Example 70, 6-Methyl-imidazo[2,1-b]thiazole-5-carboxylic acid-(1S,2S,5R)-{3-[2-amino-5-(3-fluoro-phenyl)-thiazole-4-carbonyl]-3-aza-bicyclo[3.3.0]oct-2-ylmethyl}-amide], the IC50 at human orexin-2 receptor (setting [1]) turned out to be 0.02 µM; on human orexin-1 receptor (setting [1]), 0.017 µM.

Consider `Cc1cccc(-c2sc(C)nc2C(=O)N2C[C@@H]3CC(F)(F)C[C@@H]3[C@H]2CNC(=O)c2cccc3c2CCO3)c1` [Example 79, 2,3-Dihydro-benzofuran-4-carboxylic acid-(1S,2S,5R)-[7,7-difluoro-3-(2-methyl-5-m-tolyl-thiazole-4-carbonyl)-3-aza-bicyclo[3.3.0]oct-2-ylmethyl]-amide], for which the IC50 on human orexin-2 receptor (setting [2]) turned out to be 0.02 µM; on human orexin-1 receptor (setting [2]), 0.008 µM.

Turning to `Cc1cccc(-c2sc(C)nc2C(=O)N2C[C@@H]3CC(F)(F)C[C@@H]3[C@H]2CNC(=O)c2cccc3ncsc23)c1` [Example 81, Benzothiazole-7-carboxylic acid-(1S,2S,5R)-[7,7-difluoro-3-(2-methyl-5-m-tolyl-thiazole-4-carbonyl)-3-aza-bicyclo[3.3.0]oct-2-ylmethyl]-amide], the results for the IC50 on human orexin-2 receptor (setting [2]) and on human orexin-1 receptor (setting [2]) were 0.01 µM and 0.006 µM, respectively.

Take `Cc1cccc(-c2sc(C)nc2C(=O)N2C[C@@H]3CC(F)(F)C[C@@H]3[C@H]2CNC(=O)c2c(C)nc3sccn23)c1` [Example 85, 6-Methyl-imidazo[2,1-b]-thiazole-5-carboxylic acid-(1S,2S,5R)-[7,7-difluoro-3-(2-methyl-5-m-tolyl-thiazole-4-carbonyl)-3-aza-bicyclo[3.3.0]oct-2-ylmethyl]-amide]: the IC50 turned out to be 0.018 µM on human orexin-2 receptor (setting [2]) and 0.007 µM on human orexin-1 receptor (setting [2]).

The IC50 is the point on the concentration scale where inhibition reaches its midpoint.
